The values that follow come from patent publication US5612317A, “Method for delivering estrogen” (priority 1994, dated 1997).

The conditions of series [1]: injected into normal women; cited from earlier work.
Series [2] can be described thus: Incubation of 3H-vitamin D3-glucoside with rat intestinal homogenate, reverse phase HPLC. Type of series: in vitro ADME. The note with it: 3 hours at 37° C. The protocol:
FIG. 1A and FIG. 1B depict reverse phase HPLC (2% H2 O/methanol, 1.5 ml/min) of ^3 H-vitamin D3 -glucoside before (FIG. 1A) and after (FIG. 1B) incubation with rat intestinal homogenate for 3 hours at 37° C.
(§1) A study was conducted whereby ^3 H-vitamin D3 -3β-glucoside was incubated with intestine and kidney homogenates. […] Therefore, the same results for estradiol-3β-glucoside would be expected since vitamin D and estradiol are both fat soluble sterols.

Series [3] is described as follows: Incubation of 3H-vitamin D3-glucoside with rat kidney homogenate, reverse phase HPLC. Type of series: in vitro ADME. Particulars: 3 hours at 37° C. The method, then: FIG. 1C depicts reverse phase HPLC (2% H2 O/methanol, 1.5 ml/min) of ^3 H-vitamin D3 -glucoside after incubation with rat kidney homogenate for 3 hours at 37° C.
as §1

Series [4] in a line: Circulating concentration of 17β-estradiol and estrone in ovariectomized rats after daily oral dosing for two weeks (radioimmunoassay). Format: in vivo. Particulars: six ovariectomized rats per group. The protocol:
De-conjugation of estradiol-3-(β-glucoside) to estradiol will occur slowly in peripheral tissues, and therefore, will maintain circulating levels of estradiol at a more physiologic level for a longer period of time. A study in humans with the vitamin D-3β-glucoside was conducted as a model compound. The blood level of vitamin D after an equimolar dose of vitamin D3 and vitamin D3 -3β-glucoside was compared. […] Thus, from this single dose vitamin D-glucoside study, there would not appear to be any hazard to the prolonged duration of action of the estradiol resulting from the slow de-conjugation of the estradiol-3-(β-glucoside). A study in ovariectomized rats was also conducted to determine the blood level of estradiol and estrone after receiving three different doses of either estradiol or estradiol-3-(β-glucoside) orally each day for two weeks. […] Thus, estradiol-3-(β-glucoside) will increase circulating concentrations of estradiol.
In vivo rat studies were carried out where estradiol-3-(β-glucoside) was given orally for two weeks to ovariectomized rats.
Circulating concentration of 17β-estradiol and estrone
in six ovariectomized rats per group that received an oral
dose of either 17β-estradiol or 17β-estradiol-3 β-
glucoside (estradiol-glc) each day for two weeks.

Series [5] in a line: Side-effects and vaginal bleeding in ovariectomized rats dosed orally for two weeks. Type of series: in vivo. From the text:
Based on the results in rats and humans with the model vitamin D-3β-glucoside and experience with giving estradiol-3-(β-glucoside) to ovariectomized rats, there is no indication of potential additive or multiplicative toxicity.

The next series relates to estradiol receptor. Particulars: "there is evidence"; no method given; cited from earlier work.
Setting [6] is: listed as 3 H-vitamin D3 -glucoside.

In the case of `C[C@]12CC[C@@H]3c4ccc(O)cc4CC[C@H]3[C@@H]1CC[C@H]2O[C@@H]1O[C@H](CO)[C@@H](O)[C@H](O)[C@H]1O` [17α-estradiol-17-glucoside], the “Metabolite recovered in urine” value in series [1] was “the 3-glucuronide derivatives of each compound were recovered in the urine”.

With `C=C1CC[C@H](O[C@@H]2O[C@H](CO)[C@@H](O)[C@H](O)[C@H]2O)C/C1=C/C=C1\CCC[C@]2(C)[C@@H]([C@H](C)CCCC(C)C)CC[C@@H]12` [vitamin D3 -3β-glucoside], the “Metabolism of the glucoside / formation of 3H-vitamin D3” value in series [2] is recorded as “None of the vitamin D3 -3β-glucoside was metabolized in the intestinal homogenates”; in series [2] (setting [6]), “No ^3 H-vitamin D3 was formed”. Moreover, the “De-conjugation of the glucoside / formation of 3H-vitamin D3” value in series [3] (listed as 3 H-vitamin D3 -3β-glucoside) was “only the kidney homogenate was capable of removing the glucoside from vitamin D3”; in series [3] (setting [6]) it was “formation of ^3 H-vitamin D3”; in series [3] (listed as vitamin D-3β-glucoside) it was “β-glucosidase(s) in the kidney are able to de-conjugate the β-glucoside from the vitamin D-3β-glucoside”.

With `C[C@]12CC[C@@H]3c4ccc(O)cc4CC[C@H]3[C@@H]1CC[C@@H]2O` [estradiol, 17β-estradiol, reference compound], the “Blood concentration of estradiol” value in series [4] (dose 1, each day for two weeks) was 3.5 ± 0.7 pg/mL; in series [4] (dose 10, each day for two weeks), 8.7 ± 2.1 pg/mL; in series [4] (dose 15, each day for two weeks), 46.8 ± 10.4 pg/mL. In addition, the “Untoward side-effects or vaginal bleeding” value in series [5] (oral, two weeks, ovariectomized rats) was “No untoward side-effects or vaginal bleeding was noted”.

Turning to `C[C@]12CC[C@@H]3c4ccc(O[C@@H]5O[C@H](CO)[C@@H](O)[C@H](O)[C@H]5O)cc4CC[C@H]3[C@@H]1CC[C@@H]2O` [estradiol-glc, 17β-estradiol-3β-glucoside], the “Interaction with the estradiol receptor” value in the series on estradiol receptor is “does not interact with the estradiol receptor”. Also, the “Untoward side-effects or vaginal bleeding” value in series [5] (rat, in vivo, po) was “No untoward side-effects or vaginal bleeding was noted”.

Take `C[C@]12CC[C@@H]3c4ccc(O)cc4CC[C@H]3[C@@H]1CC[C@@H]2OC1O[C@H](CO)[C@@H](O)[C@H](O)[C@H]1O` (stereo partly drawn) [17β-estradiol-17-glucoside]: in series [1], the “Metabolite recovered in urine” value is “the 3-glucuronide derivatives of each compound were recovered in the urine”.
